# From PMC5001167 (Journal of medicinal chemistry, 2016)
# Entries after “also recorded” stand apart in the source; their conditions may differ.
# How the values were obtained:
# [1] = target: kappa opioid receptor (Homo sapiens, UniProt P41145); assay: Opioid receptor binding at 10 μM; details: at a concentration of 10 μM
# [2] = tested on: Long-Evans rats; assay: Oxycodone-induced conditioned place preference; type: in vivo, rat
# [3] = target: mu opioid receptor (Homo sapiens, UniProt P35372); assay: Opioid receptor binding at 10 μM; details: at a concentration of 10 μM
# [4] = tested on: C57BL/6J mice; assay: Locomotor activity, basal and oxycodone-induced, open-field chambers
# [5] = target: delta opioid receptor (Homo sapiens, UniProt P41143); assay: Opioid receptor binding at 10 μM; details: at a concentration of 10 μM
# [6] = target: T1, 5HT1A (Homo sapiens, UniProt P08908); assay: 5HT1A [35S]GTPγS binding functional assay; type: biochemical
# T1 sequence (P08908 1-422): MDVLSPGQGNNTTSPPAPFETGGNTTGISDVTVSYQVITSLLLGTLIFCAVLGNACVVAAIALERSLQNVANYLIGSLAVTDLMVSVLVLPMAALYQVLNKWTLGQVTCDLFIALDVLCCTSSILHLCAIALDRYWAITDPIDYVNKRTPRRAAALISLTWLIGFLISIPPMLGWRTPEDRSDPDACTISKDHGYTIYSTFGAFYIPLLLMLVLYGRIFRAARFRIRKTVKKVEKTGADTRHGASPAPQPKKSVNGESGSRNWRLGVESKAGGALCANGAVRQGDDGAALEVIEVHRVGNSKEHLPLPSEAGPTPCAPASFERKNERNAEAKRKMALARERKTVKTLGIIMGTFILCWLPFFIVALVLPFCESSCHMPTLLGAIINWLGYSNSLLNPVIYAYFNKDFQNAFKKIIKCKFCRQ
# [7] = target: D2R; details: read-out: D2R Ki; eticlopride; cited from earlier work
# [8] = tested on: dogs; details: cited from earlier work
# [9] = cited from earlier work
# [10] = target: human D2LR (Homo sapiens, UniProt P14416); type: binding; details: read-out: D2LR Ki ± S.E.M.; full-length analogues, Table 2; HEK 293
# [11] = target: T2, human D4.4R (Homo sapiens, UniProt P21917); type: binding; details: read-out: D4.4R Ki ± S.E.M.; full-length analogues, Table 2; HEK 293
# T2 sequence (P21917 1-419): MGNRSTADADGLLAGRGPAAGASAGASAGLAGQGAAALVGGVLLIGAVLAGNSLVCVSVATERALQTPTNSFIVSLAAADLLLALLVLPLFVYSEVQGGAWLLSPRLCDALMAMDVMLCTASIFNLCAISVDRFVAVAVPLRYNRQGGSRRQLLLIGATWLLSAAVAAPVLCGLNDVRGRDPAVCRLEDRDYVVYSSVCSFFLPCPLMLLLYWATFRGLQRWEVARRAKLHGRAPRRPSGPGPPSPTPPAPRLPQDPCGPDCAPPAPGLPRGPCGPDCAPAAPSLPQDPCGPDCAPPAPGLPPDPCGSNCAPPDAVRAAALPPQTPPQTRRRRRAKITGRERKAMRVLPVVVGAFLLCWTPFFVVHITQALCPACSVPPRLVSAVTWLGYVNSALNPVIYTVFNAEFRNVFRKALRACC
# [12] = target: human D3R (Homo sapiens, UniProt P35462); type: binding; details: Table 2
# human D3R, sequence (P35462 whole entry): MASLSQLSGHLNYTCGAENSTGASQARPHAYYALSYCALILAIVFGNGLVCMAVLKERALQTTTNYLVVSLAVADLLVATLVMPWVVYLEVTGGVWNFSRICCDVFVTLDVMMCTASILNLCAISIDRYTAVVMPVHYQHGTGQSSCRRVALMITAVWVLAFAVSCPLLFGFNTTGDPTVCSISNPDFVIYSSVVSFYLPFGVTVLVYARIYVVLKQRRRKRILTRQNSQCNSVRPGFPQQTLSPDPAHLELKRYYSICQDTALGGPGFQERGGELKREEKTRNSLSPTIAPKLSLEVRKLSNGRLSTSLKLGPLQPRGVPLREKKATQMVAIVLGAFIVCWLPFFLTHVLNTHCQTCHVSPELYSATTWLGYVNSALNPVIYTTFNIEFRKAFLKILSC
# kappa opioid receptor, sequence (P41145 whole entry): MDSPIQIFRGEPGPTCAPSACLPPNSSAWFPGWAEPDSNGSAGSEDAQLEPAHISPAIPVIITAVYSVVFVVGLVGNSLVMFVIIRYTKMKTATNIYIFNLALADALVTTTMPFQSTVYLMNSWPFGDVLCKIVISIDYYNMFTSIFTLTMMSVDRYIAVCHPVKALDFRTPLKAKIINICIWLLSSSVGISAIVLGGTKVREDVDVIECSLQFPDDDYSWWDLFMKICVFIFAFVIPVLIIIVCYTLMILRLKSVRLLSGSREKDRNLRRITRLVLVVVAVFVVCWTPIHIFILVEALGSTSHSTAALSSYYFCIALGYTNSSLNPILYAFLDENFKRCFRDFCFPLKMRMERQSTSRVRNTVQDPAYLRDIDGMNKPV
# delta opioid receptor, sequence (P41143 whole entry): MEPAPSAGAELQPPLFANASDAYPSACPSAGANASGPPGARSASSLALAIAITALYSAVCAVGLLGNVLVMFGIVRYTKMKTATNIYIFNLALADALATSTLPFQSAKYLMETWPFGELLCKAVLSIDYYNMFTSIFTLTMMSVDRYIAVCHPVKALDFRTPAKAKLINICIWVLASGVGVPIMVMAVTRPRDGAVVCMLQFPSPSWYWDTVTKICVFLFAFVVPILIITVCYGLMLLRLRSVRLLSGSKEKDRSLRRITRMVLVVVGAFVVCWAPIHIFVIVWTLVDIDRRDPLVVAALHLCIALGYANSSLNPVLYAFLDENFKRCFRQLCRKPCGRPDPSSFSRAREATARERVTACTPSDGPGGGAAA
# mu opioid receptor, sequence (P35372 whole entry): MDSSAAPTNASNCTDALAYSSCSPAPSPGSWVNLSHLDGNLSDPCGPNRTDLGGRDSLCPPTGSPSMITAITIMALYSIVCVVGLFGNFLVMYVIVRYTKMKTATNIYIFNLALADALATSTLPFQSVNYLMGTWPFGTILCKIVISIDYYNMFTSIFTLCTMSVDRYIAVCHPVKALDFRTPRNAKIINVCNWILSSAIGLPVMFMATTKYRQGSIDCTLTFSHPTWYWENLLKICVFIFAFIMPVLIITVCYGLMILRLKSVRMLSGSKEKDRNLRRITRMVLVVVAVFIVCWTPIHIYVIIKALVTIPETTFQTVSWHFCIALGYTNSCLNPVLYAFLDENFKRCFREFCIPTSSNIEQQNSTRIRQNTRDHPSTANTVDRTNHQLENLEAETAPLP
# human D2LR, sequence (P14416 whole entry): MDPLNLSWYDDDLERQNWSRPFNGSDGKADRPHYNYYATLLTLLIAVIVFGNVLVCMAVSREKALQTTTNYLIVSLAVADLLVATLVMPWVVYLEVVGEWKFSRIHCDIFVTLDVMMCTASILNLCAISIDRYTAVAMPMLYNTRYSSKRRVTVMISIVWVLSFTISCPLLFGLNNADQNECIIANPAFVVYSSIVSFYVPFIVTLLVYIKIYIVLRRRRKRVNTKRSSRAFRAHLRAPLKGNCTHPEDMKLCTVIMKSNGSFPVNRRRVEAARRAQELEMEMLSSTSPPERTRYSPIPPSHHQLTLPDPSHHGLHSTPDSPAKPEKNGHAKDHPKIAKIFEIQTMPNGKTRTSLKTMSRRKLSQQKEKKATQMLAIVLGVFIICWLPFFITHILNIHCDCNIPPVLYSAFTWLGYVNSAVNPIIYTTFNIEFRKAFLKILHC
compound,measurement,setting,value
"CCc1cc(Cl)c(OC)c(N2CCN(CC(O)CCNC(=O)c3cc4ccccc4[nH]3)CC2)c1 (stereo not shown) [Compound 19, N-(4-(4-(3-Chloro-5-ethyl-2-methoxyphenyl)piperazin-1-yl)-3-hydroxybutyl)-1H-indole-2-carboxamide]",binding to kappa opioid receptor,[1],does not bind
same,effect on oxycodone-induced CPP at 15 mg/kg,"[2]; rats, 15 mg/kg i.p., p<0.05 compared to (Vehicle + oxycodone) group",significant reduction
same,CPP produced by compound alone,"[2]; rats, 15 mg/kg i.p., paired with saline, 15 mg/kg",did not produce CPP; also recorded: did not produce significant place preference
same,effect on oxycodone-induced CPP,"[2]; rats, 5, 15 mg/kg i.p. 15 min before each oxycodone injection (3 mg/kg i.p.)",dose-dependently attenuated; also recorded: dose-dependently blocked
same,binding to mu opioid receptor,[3],does not bind
same,effect on acute oxycodone-induced hyperactivity,"[4]; mice, 5, 15 mg/kg i.p. 15 min before oxycodone 4 mg/kg, day 2",attenuated; also recorded: dose-dependently inhibited
same,effect on basal locomotor activity,"[4]; mice, 5, 15 mg/kg i.p. alone, day 1",no effect on locomotion
same,effect on acquisition of repeated oxycodone-induced locomotor sensitization,"[4]; mice, 5, 15 mg/kg i.p. daily before oxycodone 4 mg/kg, day 2-day 6",dose-dependently blocked
same,effect on expression of oxycodone prime-induced locomotor sensitization after 2 days of withdrawal,"[4]; mice, day 9, oxycodone 4 mg/kg challenge without pretreatment",blocked; also recorded: long-lasting inhibition
same,binding to delta opioid receptor,[5],does not bind
"CCc1cccc(N2CCN(CCCCNC(=O)c3cc4ccccc4[nH]3)CC2)c1Cl [Compound 22, N-(4-(4-(2-Chloro-3-ethylphenyl)piperazin-1-yl)butyl)-1H-indole-2-carboxamide]",functional profile at 5HT1A,[6],functional agonists
"CCc1cccc(N2CCN(CCCCNC(=O)c3cc4ccccc4o3)CC2)c1Cl [Compound 24, N-(4-(4-(2-Chloro-3-ethylphenyl)piperazin-1-yl)butyl)benzofuran-2-carboxamide]",functional profile at 5HT1A,[6],functional agonists
"CCc1cccc(N2CCN(CC(O)CCNC(=O)c3cc4ccccc4o3)CC2)c1Cl (stereo not shown) [Compound 25, N-(4-(4-(2-Chloro-3-ethylphenyl)piperazin-1-yl)-3-hydroxybutyl)benzofuran-2-carboxamide]",functional profile at 5HT1A,[6],functional agonists
CCc1cc(Cl)c(OC)c(C(=O)NC[C@@H]2CCCN2CC)c1O [Eticlopride],Ki,[7],0.086 nM
"Cc1ncoc1-c1nnc(SCCCN2C[C@@H]3C[C@]3(c3ccc(C(F)(F)F)cc3F)C2)n1C [GSK598,809]",blood pressure effect in the presence of cocaine,[8],significant hypertension
O=C(NCC[C@@H](O)CN1CCN(c2cccc(Cl)c2Cl)CC1)c1cc2ccccc2[nH]1 [R-PG648],metabolic stability,[9],metabolic instability
"COc1ccc2c3c1O[C@H]1C(=O)CC[C@@]4(O)[C@@H](C2)N(C)CC[C@]314 [oxycodone, reference compound]",CPP produced by oxycodone,"[2]; rats, oxycodone 3 mg/kg i.p. versus saline conditioning",produced significant CPP
same,effect of oxycodone on locomotor activity,"[4]; mice, oxycodone 4 mg/kg i.p.",significant increases in locomotor activity
"N-(4-(4-(2-Chloro-3-ethylphenyl)piperazin-1-yl)butyl)-6-methylimidazo[2,1-b]thiazole-5-carboxamide [Compound 28]",Ki,[10],4.65 ± 1.24 nM
same,Ki,[11],143 ± 3.18 nM
same,D2R/D3R,"[12]; binding selectivity, ratio of Ki values (fold)",5
same,Ki,"[12]; read-out: D3R Ki ± S.E.M., full-length analogues, HEK 293",0.941 ± 0.13 nM
